The record followed here is patent US10195156B2, “Compounds and compositions for intracellular delivery of agents” (ModernaTX, Inc., priority 2015, dated 2019).

A short description of data set [1]: Particle size and polydispersity index of nanoparticle compositions (Zetasizer Nano ZS). The class given is physicochemical. As to conditions: for particle size, rank within the named table (in words): comparison amongst compositions. The protocol: A Zetasizer Nano ZS (Malvern Instruments Ltd, Malvern, Worcestershire, UK) can be used to determine the particle size, the polydispersity index (PDI) and the zeta potential of the nanoparticle compositions in 1×PBS in determining particle size and 15 mM PBS in determining zeta potential.

The nature of data set [2]: Encapsulation efficiency of RNA (QUANT-IT RIBOGREEN RNA assay). The class given is physicochemical. As to conditions: for encapsulation efficiency, rank within the named table (in words): comparison amongst compositions. The protocol:
For nanoparticle compositions including an RNA, a QUANT-IT™ RIBOGREEN® RNA assay (Invitrogen Corporation Carlsbad, Calif.) can be used to evaluate the encapsulation of an RNA by the nanoparticle composition. The samples are diluted to a concentration of approximately 5 μg/mL in a TE buffer solution (10 mM Tris-HCl, 1 mM EDTA, pH 7.5). 50 μL of the diluted samples are transferred to a polystyrene 96 well plate and either 50 μL of TE buffer or 50 μL of a 2% Triton X-100 solution is added to the wells. The plate is incubated at a temperature of 37° C. for 15 minutes. The RIBOGREEN® reagent is diluted 1:100 in TE buffer, and 100 μL of this solution is added to each well. The fluorescence intensity can be measured using a fluorescence plate reader (Wallac Victor 1420 Multilablel Counter; Perkin Elmer, Waltham, Mass.) at an excitation wavelength of, for example, about 480 nm and an emission wavelength of, for example, about 520 nm. The fluorescence values of the reagent blank are subtracted from that of each of the samples and the percentage of free RNA is determined by dividing the fluorescence intensity of the intact sample (without addition of Triton X-100) by the fluorescence value of the disrupted sample (caused by the addition of Triton X-100).

Data set [3] can be described thus: pKa of nanoparticle compositions. It counts as physicochemical.
For data set [4], the system named is luciferase (Luc) mRNA expression. As to the kind of experiment: Expression of Luc induced by sample formulations, whole-body bioluminescence after intravenous administration. Conditions: mice, i.v., 0.5 mg/kg; for total flux / Luc expression, rank within the named table (in words): each time point. The class given is in vivo. As to the method: In order to monitor how effectively various nanoparticle compositions deliver therapeutic and/or prophylactic agents to targeted cells, different nanoparticle compositions including a particular therapeutic and/or prophylactic agent (for example, a modified or naturally occurring RNA such as an mRNA) are prepared and administered to rodent populations. Mice are intravenously, intramuscularly, intraarterially, or intratumorally administered a single dose including a nanoparticle composition with a formulation such as those provided in Table 1. In some instances, mice may be made to inhale doses. Dose sizes may range from 0.001 mg/kg to 10 mg/kg, where 10 mg/kg describes a dose including 10 mg of a therapeutic and/or prophylactic agent in a nanoparticle composition for each 1 kg of body mass of the mouse. A control composition including PBS may also be employed.
Upon administration of nanoparticle compositions to mice, dose delivery profiles, dose responses, and toxicity of particular formulations and doses thereof can be measured by enzyme-linked immunosorbent assays (ELISA), bioluminescent imaging, or other methods. For nanoparticle compositions including mRNA, time courses of protein expression can also be evaluated. Samples collected from the rodents for evaluation may include blood, sera, and tissue (for example, muscle tissue from the site of an intramuscular injection and internal tissue); sample collection may involve sacrifice of the animals.
The efficacy of the nanoparticle compositions presented in Tables 1, 1a, 17-1, 19-1, 20-1 and 21-1 was evaluated with a bioluminescence study. Formulations were administered intravenously to mice (n=6) at a dosage of 0.5 mg/kg (mpk) and bioluminescence measured at 3, 6, and 24 hour time points. The standard MC3 formulation and a PBS control were evaluated for comparison.

For data set [5], the system named is modified luciferase expression. Description: Expression of Luc in different organs (liver, lung, spleen, femur) 6 hours after intravenous administration. Conditions: i.v., 0.5 mpk. The class given is in vivo. The protocol:
The efficacy of the nanoparticle compositions presented in Tables 1, 1a, 17-1, 19-1, 20-1 and 21-1 was further evaluated by measuring the expression of modified luciferase in the liver, lung, spleen, and femur upon administration of a given composition. Formulations were administered intravenously to mice (n=3) at a dosage of 0.5 mpk and bioluminescence measured after 6 hours. The standard MC3 formulation and a PBS control were also tested.

Setting [6] is: Table 1, rows without footnote mark (lipid:DOPE:cholesterol:PEG-DMG 40:20:38.5:1.5, Luc mRNA; MC3 standard formulation).
Setting [7] is: Table 1, rows without footnote mark.
The mark [8] stands for this setting: Table 20-1, rows without footnote mark.
The mark [9] stands for this setting: Table 1, * lipid:DSPC:Chol:PEG-DMG 50:10:38.5:1.5.

As to `CCCCCCCCCCCCN(CCCCCCCCCCCC)CCN1CCN(CCN(CCCCCCCCCCCC)C(=O)CN(CCCCCCCCCCCC)CCCCCCCCCCCC)CC1` [Compound 1, 2-(Didodecylamino)-N-(2-(4-(2-(didodecylamino)ethyl)piperazin-1-yl)ethyl)-N-dodecylacetamide], the “Size (nm)” value in data set [1] (setting [6]) amounted to 203.2 nm. Moreover, the “particle size, rank within the named table (in words)” value in data set [1] is “largest particles”. Further, in data set [2] (setting [7]), the “EE (%)” value is on record as 46.2%. Moreover, in data set [2], the “encapsulation efficiency, rank within the named table (in words)” value is listed as “lowest”. In data set [3] (setting [7]), the pKa was 5.95.
In the case of `CCCCCCCCCCCCN(CCO)CCCCCCCCCCCC` [Compound 17-11, 2-(Didodecylamino)ethan-1-ol], in data set [4] (Table 17-2), the “Total Flux 3 hours” value is listed as 1.86E+06, the “Total Flux 6 hours” value is 2.82E+06 and the “Total Flux 24 hours” value was 2.70E+05. Also, in data set [1] (Table 17-1), the PDI is given as 0.24 and the “Size (nm)” value turned out to be 87.3 nm. In addition, in data set [2] (Table 17-1), the “EE (%)” value is reported as 88.7%. Also, in data set [5] (Table 17-3, mice, liver), the “Total Flux Liver” value is recorded as 5.06E+05. In addition, in data set [5] (Table 17-3, mice), the “Total Flux Lung” value was 1.20E+04 and the “Total Flux Spleen” value was 3.37E+05. In data set [3] (Table 17-1), this compound had a pKa of 6.76.
In the case of `CCCCCCCCCCCCN(CCCCCCCCCCCC)CCN1CCNCC1` [Compound 19-2, N-Dodecyl-N-(2-(piperazin-1-yl)ethyl)dodecan-1-amine], in data set [4] (Table 19-2), the “Total Flux 3 hours” value is on record as 1.96E+05, the “Total Flux 6 hours” value is on record as 3.51E+05 and the “Total Flux 24 hours” value is listed as 2.29E+05. In addition, the “total flux / Luc expression, rank within the named table (in words)” value in data set [4] is “lowest total flux”. Also, in data set [1] (Table 19-1), the PDI was determined as 0.239 and the “Size (nm)” value is 72.0 nm. Besides, the “EE (%)” value in data set [2] (Table 19-1) is reported as 98.8%. Further, in data set [5] (Table 19-3, mice, liver), the “Total Flux Liver” value was found to be 5.73E+04. In data set [5] (Table 19-3, mice), the “Total Flux Lung” value is on record as 2.33E+04 and the “Total Flux Spleen” value is reported as 3.56E+04. In addition, the “total flux in the liver, rank within the named table (in words)” value in data set [5] (mice, liver) was “lowest total flux in the liver”. Moreover, the pKa in data set [3] (Table 19-1) worked out at 7.32.
Regarding `CCCCCCCCCCCCN(CCCCCCCCCCCC)CCN1CCN(Cc2ccc(OC)cc2)CC1` [Compound 19-5, N-Dodecyl-N-(2-(4-(4-methoxybenzyl)piperazin-1-yl)ethyl)dodecan-1-amine], in data set [4] (Table 19-2), the “Total Flux 3 hours” value worked out at 2.37E+07, the “Total Flux 6 hours” value was 1.44E+07 and the “Total Flux 24 hours” value is reported as 2.76E+06. Besides, the “total flux / Luc expression, rank within the named table (in words)” value in data set [4] is “next highest flux”. Besides, in data set [1] (Table 19-1), the PDI came out at 0.204 and the “Size (nm)” value was 106.9 nm. In addition, the “EE (%)” value in data set [2] (Table 19-1) worked out at 93.6%. Moreover, the “Total Flux Liver” value in data set [5] (Table 19-3, mice, liver) is 5.99E+06. Also, in data set [5] (Table 19-3, mice), the “Total Flux Lung” value is recorded as 3.46E+04 and the “Total Flux Spleen” value is 2.10E+05. For the same compound, the pKa in data set [3] (Table 19-1) turned out to be 6.32.
In the case of `CCCCCCCCCCCCN(CCO)CCN(CCCCCCCCCCCC)CCCCCCCCCCCC` [Compound 20-20, 2-((2-(Didodecylamino)ethyl)(dodecyl)amino)ethan-1-ol], in data set [4] (Table 20-2), the “Total Flux 3 hours” value stood at 4.56E+09, the “Total Flux 6 hours” value is recorded as 3.27E+09 and the “Total Flux 24 hours” value was 3.56E+08. In data set [1] (setting [8]), the PDI is given as 0.159 and the “Size (nm)” value turned out to be 86.8 nm. The “EE (%)” value in data set [2] (setting [8]) worked out at 95.2%. Moreover, in data set [5] (Table 20-3, mice, liver), the “Total Flux Liver” value is reported as 8.92E+08. Besides, in data set [5] (Table 20-3, mice), the “Total Flux Lung” value is given as 1.12E+06 and the “Total Flux Spleen” value worked out at 1.39E+07. In data set [3] (setting [8]), this compound gave a pKa of 6.41.
Take `CCCCC/C=C\C/C=C\CCCCCCCCC1(CCCCCCCC/C=C\C/C=C\CCCCC)CC1CN(C)C` (stereo not drawn) [Compound 21-1, 1-(2,2-Di((9Z,12Z)-octadeca-9,12-dien-1-yl)cyclopropyl)-N,N-dimethylmethanamine]: in data set [4] (Table 21-2), the “Total Flux 3 hours” value is on record as 3.66E+09, the “Total Flux 6 hours” value is on record as 4.19E+09 and the “Total Flux 24 hours” value came out at 4.19E+09. In data set [1] (Table 21-1), the PDI was 0.237 and the “Size (nm)” value turned out to be 119.9 nm. Moreover, the “particle size, rank within the named table (in words)” value in data set [1] is on record as “largest particles”. In addition, the “EE (%)” value in data set [2] (Table 21-1) was determined as 98.4%. Moreover, in data set [5] (Table 21-3, mice, liver), the “Total Flux Liver” value is on record as 3.62E+08. For the same compound, in data set [5] (Table 21-3, mice), the “Total Flux Lung” value is 5.44E+05 and the “Total Flux Spleen” value stood at 3.27E+07. In data set [3] (Table 21-1), this compound gave a pKa of 6.07.
As for `CCCCC/C=C\CCCCCN(CCCCCCCCCCCC)CCN1CCN(CCN(CCCCCCCCCCCC)CCN(CCCCCCCCCCCC)CCCCCCCCCCCC)CC1` [Compound 24, (Z)—N^1-(2-(4-(2-(Dodec-6-en-1-yl(dodecyl)amino)ethyl)piperazin-1-yl)ethyl)-N^1,N^2,N^2-tridodecylethane-1,2-diamine], the “Size (nm)” value in data set [1] (Table 1, * formulated with lipid:DSPC:Chol:PEG-DMG 50:10:38.5:1.5) stood at 110.4 nm. The same compound returned a PDI in data set [1] (setting [9]) of 0.131. For the same compound, in data set [2] (setting [9]), the “EE (%)” value came out at 36.4%. In addition, the “encapsulation efficiency, rank within the named table (in words)” value in data set [2] was “lowest”. The same compound displayed a pKa in data set [3] (setting [9]) of 6.01.
Regarding `CCCCCCCC/C=C\CCCCCCCCN(CCCCCCCC/C=C\CCCCCCCC)CCN(CCCCCCCC/C=C\CCCCCCCC)CCN1CCN(CCN(CCCCCCCC/C=C\CCCCCCCC)CCCCCCCC/C=C\CCCCCCCC)CC1` [Formula IV, N^1-(2-(4-(2-(Di((Z)-octadec-9-en-1-yl)amino)ethyl)piperazin-1-yl)ethyl)-N^1,N^2,N^2-tri((Z)-octadec-9-en-1-yl)ethane-1,2-diamine], the “Size (nm)” value in data set [1] (setting [6]) is 94.2 nm. Also, the “EE (%)” value in data set [2] (setting [7]) is listed as 97.6%. The “Total Flux Liver” value in data set [5] (Table 3, mice, liver) was found to be 9.15E+08. For the same compound, the “Total Flux Spleen” value in data set [5] (Table 3, mice) is listed as 6.15E+08. This compound had a pKa in data set [3] (setting [7]) of 6.25.
